ED50 data for two molecules are collected here from patent EP0160258A2, “(6,11-Dihydro-11-oxodibenz(bm,e)oxepinyl)pentanols, a process and intermediates for their preparation and their use as medicaments” (HOECHST-ROUSSEL PHARMACEUTICALS INCORPORATED, priority 1984, dated 1985).

SMILES strings stand for the structures. Where two headings read alike, the source gives them in different places.

The assay concerns adjuvant-induced polyarthritis. Description: adjuvant-induced polyarthritis syndrome in rats (paw volume). Type of assay: in vivo. Conditions: Rattus norvegicus, 504 h, dose effecting 50 % inhibition of paw volume, oral, day before adjuvant and continued for 21 days, male Charles River-Wistar Lewis rats. The procedure:
The (6,11-dihydro-11-oxodibenz[b,e]oxepinyl)pentanols and derivatives thereof of the present invention are useful as antiarthritic agents due to their ability to specifically suppress arthritis-type inflammation in mammals. […] M. Perrone and F. D. Wood, Arthritis and Rheumatism, 2, 440 (1959).
Groups of 10 male Charles River-Wistar Lewis rats weighing 150 to 175 g were individually housed and maintained on a regular rat chow diet. Water was given ad libitum. The adjuvant was prepared by suspending 75 mg of Mycobacterium butyricum (Difeo Laboratories, Detroit, Michigan) in 10 ml of white paraffin oil with continuous stirring for 2 hrs at room temperature prior to administration. Test compounds are prepared by suspending the drug in water, adding one drop of Tween 80 per 10 ml of suspension, and homogenizing. The adjuvant suspension (0.1 ml) was injected into the footpad of the left hind paw of the rat. Test compound suspensions were administered orally (10 ml/kg) the day before adjuvant suspension injection and the administration was continued for 21 days. One group of ten rats was used for the test drug, standard, adjuvant-injected control and non-injected control. Control animals received vehicle (10 ml/kg). Three doses of test drug and one dose of standard preparation were used. Injected and non-injected paw volumes were determined on the day the adjuvant suspension was given, and in subsequent days thereafter (usually days 5, 10, 18 and 21) by the method of C. A. Wilson, et al., Proc. Soc. Exp. Biol. Med., 111 544 (1962).
The percent inhibition of paw volume (injected and non-injected hind paw) was calculated by the following formula: [formula] ED50-values, i.e., the dose at which the drug effects a 50 % inhibition of paw volume, were estimated by the method of J. T. Litchfield and F. Wilcoxon, J. Pharm. Exp. Thes., 96, 99 (1948), and statistically evaluated by means of the sudent "t" test.

Where [1] appears, read: injected hind paw, read-out: ED50 (injected).
Where [2] appears, read: non-injected hind paw, read-out: ED50 (non-injected).

One may read the ED50 as the dose at which the effect has come halfway, by size or by number of responders. Consider `CC(CCCO)c1ccc2c(c1)C(=O)c1ccccc1CO2` (stereo not shown) [4-(6,11-Dihydro-11-oxodibenz[b,e]oxepin-2-yl)pentanol], for which the median effective dose (ED50) was 5.6 mg/kg under setting [1] and 3.9 mg/kg under setting [2].
For `CCCCC1C(=O)N(c2ccccc2)N(c2ccccc2)C1=O` [phenylbutazone], in that order: 12 mg/kg and 6.8 mg/kg.
